# From EP0623350A1, “Use of Bradykinin-antagonists for the manufacture of a medicament for the prophylaxis and treatment of arteriosclerosis” (HOECHST AKTIENGESELLSCHAFT, priority 1993, dated 1994)
# What was measured:
# Assay type in all cases: in vivo, weißen Kaninchen (New Zealand)
# [1] = test system: Serum Lipoprotein Fraktionen; assay: Serum cholesterol/lipoprotein fractions (HDL, LDL, VLDL) by ultracentrifugation in cholesterol-fed rabbits
# Text: (§1) Der Versuch wurde mit weißen Kaninchen (New Zealand) männlichen Geschlechts mit einem Gewicht von 3-4 Kilogramm in Anlehnung an die publizierten Methoden nach A. Kisanuki, Y. Asada, K. Hatakeyama, T. Hayashi und A. Sumiyoshi: Contributions of the Endothelium to Intimal Thickening in Normocholesterolemic and Hypercholesterolemic Rabbits, Arteriosclerosis and Thrombosis (1992), 12; 1198 - 1205 und J. Cooke, A. Singer, P. Tsao, P. Zera, R.Rowan and M. Billingham: Antiatherogenic Effects of L-Arginine in the Hypercholesterolemic Rabbit(1992), 90; 1168 - 1172 durchgeführt. Nach einer Woche unter Standard-Kaninchenfutter (Altromin 2834, Lage-Lippe, Deutschland) wurden zwei Gruppen mit je 15 Kaninchen drei Monate lang mit cholesterinreicher Diät gefüttert. Die Diät enthielt 0.25% Cholesterin und 3% Kokosnußöl. Eine der beiden Gruppen erhielt zusätzlich eine subkutane Dauerinfusion von HOE 140 über implantierte osmotische Minipumpen über den gesamten Zeitraum von drei Monaten. Die Dosis betrug 100 µg/kg/Tag.
# (§2) Danach wurden die Kaninchen mit einer hohen Dosis von Pentobarbital (40 mg/kg) getötet und eine komplette Autopsie durchgeführt. Die atherosklerotischen Plaques wurden durch Öl-Rot O ([…]) sichtbar gemacht, ihr Ausmaß mittels eines Bildanalysators quantifiziert und die prozentuale Plaquegröße in der Aorta bestimmt. Weiterhin wurden die Cholesterinfraktionen (HDL, LDL und VLDL) im Serum mit Hilfe der Ultrazentrifugation bestimmt.
# [2] = test system: atherosklerotischen Plaques in der Aorta; assay: Atherosclerotic plaques in the aorta of cholesterol-fed rabbits (Oil Red O staining, image analysis)
# Text: as §1
# (§3) Eine weitere Gruppe von 15 Kaninchen, die nicht-atherogene normale Diät erhielt, diente als negative Kontrolle. Futter und Wasser wurden ad libitum gegeben. Der Nachweis, daß die gewählte Dosis HOE 140 die Wirkung endogener Kinine hemmen kann, wurde über die Hemmung der blutdrucksenkenden Wirkung von exogenem Bradykinin geführt. Am Ende des Versuches, nach dreimonatiger Behandlung, wurden die Tiere narkotisiert und der basale Blutdruck gemessen. Der basale Blutdruck lag zwischen 100 und 110 mm Hg. Nach der Messung des basalen Blutdrucks wurde Bradykinin intraarteriell als Bolus in einer Dosis von 10 ng injiziert. Bei den Tieren mit normalem Futter führte dies zu einem Blutdruckabfall von 21 mm Hg, bei den Tieren mit atherogener Diät betrug der Blutdruckabfall 24 mm Hg. Bei Kaninchen mit atherogener Diät, die mit HOE 140 behandelt wurden, fiel der Blutdruck nur noch um 3.7 mm Hg, was eine effektive Hemmung der Bradykininwirkung durch HOE 140 anzeigte.
# as §2
# [3] = test system: blutdrucksenkenden Wirkung von exogenem Bradykinin; assay: Inhibition of the blood-pressure-lowering effect of exogenous bradykinin in anaesthetised rabbits; settings: Bradykinin 10 ng intra-arterial bolus; anaesthetised rabbits on atherogenic diet after 3 months HOE 140 100 µg/kg/Tag s.c.; untreated controls 21 and 24 mm Hg
# Text: as §3
# [4] = atherogenic diet 3 months plus HOE 140 100 µg/kg/Tag s.c. continuous infusion, mean ± S.E.M.
smiles,measurement,setting,value
N=C(N)NCCC[C@@H](N)C(=O)N[C@@H](CCCNC(=N)N)C(=O)N1CCC[C@H]1C(=O)N1C[C@H](O)C[C@H]1C(=O)NCC(=O)N[C@@H](Cc1cccs1)C(=O)N[C@@H](CO)C(=O)N1Cc2ccccc2C[C@@H]1C(=O)N1[C@H](C(=O)N[C@@H](CCCNC(=N)N)C(=O)O)C[C@@H]2CCCC[C@@H]21 [HOE 140],"Serum Lipoprotein Fraktionen, HDL",[1]; [4],4981 ± 576 µg/mL
same,"Serum Lipoprotein Fraktionen, LDL",[1]; [4],168 ± 21 µg/mL
same,"Serum Lipoprotein Fraktionen, VLDL",[1]; [4],250 ± 12 µg/mL
same,HDL-Werte,"[1]; result in words, HDL raised by cholesterol-rich diet",keinen Einfluß
same,LDL und VLDL (Serumlipide),"[1]; result in words, versus atherogenic diet alone, hardly distinguishable from normal-diet controls",stark erniedrigt
same,"Plaques in der Aorta: Fläche in Prozent der Intimafläche, Thorakale Aorta",[2]; [4],1.6 ± 1.1 Prozent der Intimafläche
same,"Plaques in der Aorta: Fläche in Prozent der Intimafläche, Aortenbogen","[2]; atherogenic diet (0.25% Cholesterin, 3% Kokosnußöl) 3 months plus HOE 140 100 µg/kg/Tag s.c. continuous infusion, mean ± S.E.M.",23.4 ± 5.4 Prozent der Intimafläche
same,"Plaques in der Aorta: Fläche in Prozent der Intimafläche, Abdominelle Aorta 1","[2]; first section of abdominal aorta, atherogenic diet 3 months plus HOE 140 100 µg/kg/Tag s.c. continuous infusion, mean ± S.E.M.",1.4 ± 0.6 Prozent der Intimafläche
same,Arteriosklerotische Veränderungen der Gefäßwände,"[2]; result in words, cholesterol-fed rabbits treated with HOE 140",stark reduziert
same,Atherosklerotische Veränderungen des Aortenbogens und der Aortenabschnitte in Brust und Bauch,"[2]; result in words, versus atherogenic diet alone",bei weitem geringer
same,"Plaques in der Aorta: Fläche in Prozent der Intimafläche, Abdominelle Aorta 2","[2]; second section of abdominal aorta, atherogenic diet 3 months plus HOE 140 100 µg/kg/Tag s.c. continuous infusion, mean ± S.E.M.",7.0 ± 1.5 Prozent der Intimafläche
same,Blutdruckabfall nach Bradykinin,[3],3.7 mm Hg
